Experimental data published in patent publication US9340590B2 (priority 2011, dated 2016).
pIC50: −log10 of the molar value. Positions of bridges follow the written chain, without caps; N, C: chain ends. Non-standard residues stand in square brackets, D forms with d. Residues, ends and D or L forms follow the SMILES beside them. Lys(Me2) = CN(C)CCCC[C@H](N)C(=O)O

Molecular target: hNav1.7 (Homo sapiens, UniProt Q15858)
Assay: cell-based
Settings: Nav1.7 Use IC50

Chain of hNav1.7 (Q15858 whole entry, looked up): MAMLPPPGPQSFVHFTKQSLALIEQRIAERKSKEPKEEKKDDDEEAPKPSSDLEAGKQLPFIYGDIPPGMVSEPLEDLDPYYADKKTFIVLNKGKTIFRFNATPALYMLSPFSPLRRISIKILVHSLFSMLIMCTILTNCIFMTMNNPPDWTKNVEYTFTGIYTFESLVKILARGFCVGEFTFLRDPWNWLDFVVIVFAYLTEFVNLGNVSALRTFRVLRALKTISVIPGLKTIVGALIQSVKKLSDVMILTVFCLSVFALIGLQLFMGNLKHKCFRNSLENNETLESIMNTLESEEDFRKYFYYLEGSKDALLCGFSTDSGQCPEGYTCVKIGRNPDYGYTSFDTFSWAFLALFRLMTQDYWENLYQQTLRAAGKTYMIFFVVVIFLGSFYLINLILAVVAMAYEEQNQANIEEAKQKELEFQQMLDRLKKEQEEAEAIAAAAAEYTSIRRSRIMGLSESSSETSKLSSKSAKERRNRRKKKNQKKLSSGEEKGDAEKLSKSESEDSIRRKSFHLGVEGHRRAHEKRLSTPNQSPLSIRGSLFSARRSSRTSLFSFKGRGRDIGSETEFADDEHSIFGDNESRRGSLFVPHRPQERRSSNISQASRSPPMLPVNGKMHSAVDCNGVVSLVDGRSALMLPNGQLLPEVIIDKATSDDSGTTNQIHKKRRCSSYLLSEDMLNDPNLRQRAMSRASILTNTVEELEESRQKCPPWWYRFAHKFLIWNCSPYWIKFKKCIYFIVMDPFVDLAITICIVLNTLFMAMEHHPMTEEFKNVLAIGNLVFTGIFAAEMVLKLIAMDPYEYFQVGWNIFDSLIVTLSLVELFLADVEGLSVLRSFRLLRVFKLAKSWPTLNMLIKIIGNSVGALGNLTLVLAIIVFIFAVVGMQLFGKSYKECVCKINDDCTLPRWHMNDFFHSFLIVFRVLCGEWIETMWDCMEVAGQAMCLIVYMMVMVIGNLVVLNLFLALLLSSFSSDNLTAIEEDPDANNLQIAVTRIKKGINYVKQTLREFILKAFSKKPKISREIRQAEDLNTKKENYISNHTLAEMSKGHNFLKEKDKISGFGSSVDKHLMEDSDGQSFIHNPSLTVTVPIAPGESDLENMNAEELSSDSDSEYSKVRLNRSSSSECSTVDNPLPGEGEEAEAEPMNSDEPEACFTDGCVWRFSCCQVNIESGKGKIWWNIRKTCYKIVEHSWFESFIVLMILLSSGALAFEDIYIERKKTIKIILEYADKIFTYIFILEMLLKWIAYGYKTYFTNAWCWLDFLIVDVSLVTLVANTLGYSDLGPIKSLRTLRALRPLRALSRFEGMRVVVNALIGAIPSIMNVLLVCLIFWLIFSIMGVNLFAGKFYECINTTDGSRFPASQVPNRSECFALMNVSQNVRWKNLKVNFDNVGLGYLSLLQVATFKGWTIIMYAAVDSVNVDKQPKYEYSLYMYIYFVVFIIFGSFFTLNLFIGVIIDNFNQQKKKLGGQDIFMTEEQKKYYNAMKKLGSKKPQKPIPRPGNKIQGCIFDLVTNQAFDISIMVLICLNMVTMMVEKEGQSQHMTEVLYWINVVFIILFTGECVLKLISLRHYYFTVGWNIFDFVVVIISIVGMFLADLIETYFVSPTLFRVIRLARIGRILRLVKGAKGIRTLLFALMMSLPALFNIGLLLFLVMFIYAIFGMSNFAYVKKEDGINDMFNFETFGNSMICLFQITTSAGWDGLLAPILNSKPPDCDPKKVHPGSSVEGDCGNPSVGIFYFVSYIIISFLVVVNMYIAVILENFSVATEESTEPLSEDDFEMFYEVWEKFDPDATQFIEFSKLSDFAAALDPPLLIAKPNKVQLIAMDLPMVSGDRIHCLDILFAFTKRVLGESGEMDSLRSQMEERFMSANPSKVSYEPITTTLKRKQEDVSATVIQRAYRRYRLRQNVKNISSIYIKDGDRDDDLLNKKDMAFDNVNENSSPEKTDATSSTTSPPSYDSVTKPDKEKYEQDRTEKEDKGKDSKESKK

SMILES	pIC50
CSCC[C@@H]1NC(=O)[C@H](Cc2ccccc2)NC(=O)CNC(=O)[C@H](CC(C)C)NC(=O)[C@@H](NC(=O)[C@@H](N)CC(=O)O)CSSC[C@@H]2NC(=O)[C@@H]3CSSC[C@@H](C(=O)N[C@@H](CCCCN)C(=O)N[C@@H](Cc4ccc(O)cc4)C(=O)N[C@H](C(=O)N[C@@H](Cc4ccccc4)C(N)=O)C(C)C)NC(=O)[C@H](Cc4c[nH]c5ccccc45)NC(=O)[C@H](CCCCN)NC(=O)[C@H](Cc4cnc[nH]4)NC(=O)[C@H]([C@@H](C)O)NC(=O)[C@H](CCCNC(=N)N)NC(=O)[C@H](CO)NC(=O)[C@H](CSSC[C@H](NC(=O)[C@H](CCCCN)NC(=O)[C@H](CCCNC(=N)N)NC1=O)C(=O)N[C@@H](CC(=O)O)C(=O)N1CCC[C@H]1C(=O)N[C@@H](CC(=O)O)C(=O)N[C@@H](CC(N)=O)C(=O)N[C@@H](CC(=O)O)C(=O)N[C@@H](CCCCN)C(=O)N3)NC(=O)[C@H](C(C)C)NC(=O)[C@H](CC(C)C)NC(=O)[C@H](CC(N)=O)NC(=O)[C@@H]1CCCN1C(=O)[C@H](CCCNC(=N)N)NC2=O [[Asp10]GpTx-1(1-34)] (H-DCLGFMRKCDPDNDKCCRPNLVCSRTHKWCKYVF-NH2; disulfide 2-17, 9-23, 16-30)	8.52
CC[C@H](C)[C@@H]1NC(=O)[C@@H]2CSSC[C@@H]3NC(=O)[C@H](C(C)C)NC(=O)[C@H](CC(C)C)NC(=O)[C@H](CC(N)=O)NC(=O)[C@@H]4CCCN4C(=O)[C@H](CCCNC(=N)N)NC(=O)[C@H](CSSC[C@H](NC(=O)[C@@H](N)CC(=O)O)C(=O)N[C@@H](CC(C)C)C(=O)NCC(=O)N[C@@H](Cc4ccccc4)C(=O)N[C@@H](CCSC)C(=O)N[C@@H](CCCNC(=N)N)C(=O)N[C@@H](CCCCN)C(=O)N2)NC(=O)[C@H](CSSC[C@@H](C(=O)N[C@@H](CCCCN)C(=O)N[C@@H](Cc2ccc(O)cc2)C(=O)N[C@H](C(=O)N[C@@H](Cc2ccccc2)C(N)=O)C(C)C)NC(=O)[C@H](Cc2c[nH]c4ccccc24)NC(=O)[C@H](CC(=O)O)NC(=O)[C@H](Cc2cnc[nH]2)NC(=O)[C@H]([C@@H](C)O)NC(=O)[C@H](CCCNC(=N)N)NC(=O)[C@H](CO)NC3=O)NC(=O)[C@H](CCCCN)NC(=O)[C@H](CC(=O)O)NC(=O)[C@H](CC(N)=O)NC(=O)[C@H](CC(=O)O)NC(=O)[C@@H]2CCCN2C1=O [[Asp28]GpTx-1(1-34)] (H-DCLGFMRKCIPDNDKCCRPNLVCSRTHDWCKYVF-NH2; disulfide 2-17, 9-23, 16-30)	7.82
CC[C@H](C)[C@@H]1NC(=O)[C@@H]2CSSC[C@@H]3NC(=O)[C@H](C(C)C)NC(=O)[C@H](CC(C)C)NC(=O)[C@H](CC(N)=O)NC(=O)[C@@H]4CCCN4C(=O)[C@H](CCCNC(=N)N)NC(=O)[C@H](CSSC[C@H](NC(=O)[C@@H](N)CC(=O)O)C(=O)N[C@@H](CC(C)C)C(=O)NCC(=O)N[C@@H](C4CCCCC4)C(=O)N[C@@H](CCSC)C(=O)N[C@@H](CCCNC(=N)N)C(=O)N[C@@H](CCCCN)C(=O)N2)NC(=O)[C@H](CSSC[C@@H](C(=O)N[C@@H](CCCCN)C(=O)N[C@@H](Cc2ccc(O)cc2)C(=O)N[C@H](C(=O)N[C@@H](Cc2ccccc2)C(N)=O)C(C)C)NC(=O)[C@H](Cc2c[nH]c4ccccc24)NC(=O)[C@H](CCCCN)NC(=O)[C@H](Cc2cnc[nH]2)NC(=O)[C@H]([C@@H](C)O)NC(=O)[C@H](CCCNC(=N)N)NC(=O)[C@H](CO)NC3=O)NC(=O)[C@H](CCCCN)NC(=O)[C@H](CC(=O)O)NC(=O)[C@H](CC(N)=O)NC(=O)[C@H](CC(=O)O)NC(=O)[C@@H]2CCCN2C1=O [[Chg5]GpTx-1(1-34)]	8.15
CSCC[C@@H]1NC(=O)[C@H](Cc2ccccc2)NC(=O)CNC(=O)[C@H](CC(C)C)NC(=O)[C@@H](NC(=O)[C@@H](N)CC(=O)O)CSSC[C@@H]2NC(=O)[C@@H]3CSSC[C@@H](C(=O)N[C@@H](CCCCN)C(=O)N[C@@H](Cc4ccc(O)cc4)C(=O)N[C@H](C(=O)N[C@@H](Cc4ccccc4)C(N)=O)C(C)C)NC(=O)[C@H](Cc4c[nH]c5ccccc45)NC(=O)[C@H](CCCCN)NC(=O)[C@H](Cc4cnc[nH]4)NC(=O)[C@H]([C@@H](C)O)NC(=O)[C@H](CCCNC(=N)N)NC(=O)[C@H](CO)NC(=O)[C@H](CSSC[C@H](NC(=O)[C@H](CCCCN)NC(=O)[C@H](CCCNC(=N)N)NC1=O)C(=O)N[C@@H](CCC(=O)O)C(=O)N1CCC[C@H]1C(=O)N[C@@H](CC(=O)O)C(=O)N[C@@H](CC(N)=O)C(=O)N[C@@H](CC(=O)O)C(=O)N[C@@H](CCCCN)C(=O)N3)NC(=O)[C@H](C(C)C)NC(=O)[C@H](CC(C)C)NC(=O)[C@H](CC(N)=O)NC(=O)[C@@H]1CCCN1C(=O)[C@H](CCCNC(=N)N)NC2=O [[Glu10]GpTx-1(1-34)] (H-DCLGFMRKCEPDNDKCCRPNLVCSRTHKWCKYVF-NH2; disulfide 2-17, 9-23, 16-30)	8.70
CC[C@H](C)[C@@H]1NC(=O)[C@@H]2CSSC[C@@H]3NC(=O)[C@H](C(C)C)NC(=O)[C@H](CC(C)C)NC(=O)[C@H](CC(N)=O)NC(=O)[C@@H]4CCCN4C(=O)[C@H](CCCNC(=N)N)NC(=O)[C@H](CSSC[C@H](NC(=O)[C@@H](N)CC(=O)O)C(=O)N[C@@H](CC(C)C)C(=O)NCC(=O)N[C@@H](Cc4ccccc4)C(=O)N[C@@H](CCSC)C(=O)N[C@@H](CCCNC(=N)N)C(=O)N[C@@H](CCCCN)C(=O)N2)NC(=O)[C@H](CSSC[C@@H](C(=O)N[C@@H](CCCCN)C(=O)N[C@@H](Cc2ccc(O)cc2)C(=O)N[C@H](C(=O)N[C@@H](Cc2ccccc2)C(N)=O)C(C)C)NC(=O)[C@H](Cc2c[nH]c4ccccc24)NC(=O)[C@H](CCCCN)NC(=O)[C@H](Cc2cnc[nH]2)NC(=O)[C@H]([C@@H](C)O)NC(=O)[C@H](CCCNC(=N)N)NC(=O)[C@H](CO)NC3=O)NC(=O)[C@H](CCCCN)NC(=O)[C@H](CC(=O)O)NC(=O)[C@H](CC(N)=O)NC(=O)[C@H](CC(=O)O)NC(=O)[C@H](CCC(=O)O)NC1=O [[Glu11]GpTx-1(1-34)] (H-DCLGFMRKCIEDNDKCCRPNLVCSRTHKWCKYVF-NH2; disulfide 2-17, 9-23, 16-30)	8.70

Same assay, conditions: read-out: Nav1.7 Use IC50

SMILES	pIC50
CC[C@H](C)[C@@H]1NC(=O)[C@@H]2CSSC[C@@H]3NC(=O)[C@H](C(C)C)NC(=O)[C@H](CC(C)C)NC(=O)[C@H](CC(N)=O)NC(=O)[C@@H]4CCCN4C(=O)[C@H](CCCNC(=N)N)NC(=O)[C@H](CSSC[C@H](NC(=O)[C@@H](N)CC(=O)O)C(=O)N[C@@H](CC(C)C)C(=O)NCC(=O)N[C@@H](C4CCCC4)C(=O)N[C@@H](CCSC)C(=O)N[C@@H](CCCNC(=N)N)C(=O)N[C@@H](CCCCN)C(=O)N2)NC(=O)[C@H](CSSC[C@@H](C(=O)N[C@@H](CCCCN)C(=O)N[C@@H](Cc2ccc(O)cc2)C(=O)N[C@H](C(=O)N[C@@H](Cc2ccccc2)C(N)=O)C(C)C)NC(=O)[C@H](Cc2c[nH]c4ccccc24)NC(=O)[C@H](CCCCN)NC(=O)[C@H](Cc2c[nH]cn2)NC(=O)[C@H]([C@@H](C)O)NC(=O)[C@H](CCCNC(=N)N)NC(=O)[C@H](CO)NC3=O)NC(=O)[C@H](CCCCN)NC(=O)[C@H](CC(=O)O)NC(=O)[C@H](CC(N)=O)NC(=O)[C@H](CC(=O)O)NC(=O)[C@@H]2CCCN2C1=O [[Cpg5]GpTx-1(1-34)]	8.30
CC[C@H](C)[C@@H]1NC(=O)[C@@H]2CSSC[C@@H]3NC(=O)[C@H](C(C)C)NC(=O)[C@H](CC(C)C)NC(=O)[C@H](CC(N)=O)NC(=O)[C@@H]4CCCN4C(=O)[C@H](CCCNC(=N)N)NC(=O)[C@H](CSSC[C@H](NC(=O)[C@@H](N)CC(=O)O)C(=O)N[C@@H](CC(C)C)C(=O)NCC(=O)N[C@@H](Cc4ccccc4)C(=O)N[C@@H](CCSC)C(=O)N[C@@H](CCCNC(=N)N)C(=O)N[C@@H](CCCCN)C(=O)N2)NC(=O)[C@H](CSSC[C@@H](C(=O)N[C@@H](CCCCN)C(=O)N[C@@H](Cc2ccc(O)cc2)C(=O)N[C@H](C(=O)N[C@@H](Cc2ccccc2)C(N)=O)C(C)C)NC(=O)[C@H](Cc2c[nH]c4ccccc24)NC(=O)[C@H](CCC(N)=O)NC(=O)[C@H](Cc2c[nH]cn2)NC(=O)[C@H]([C@@H](C)O)NC(=O)[C@H](CCCNC(=N)N)NC(=O)[C@H](CO)NC3=O)NC(=O)[C@H](CCCCN)NC(=O)[C@H](CC(=O)O)NC(=O)[C@H](CC(N)=O)NC(=O)[C@H](CC(=O)O)NC(=O)[C@@H]2CCCN2C1=O [[Gln28]GpTx-1(1-34)] (H-DCLGFMRKCIPDNDKCCRPNLVCSRTHQWCKYVF-NH2; disulfide 2-17, 9-23, 16-30)	8.40
CC[C@H](C)[C@@H]1NC(=O)[C@@H]2CSSC[C@@H]3NC(=O)[C@H](C(C)C)NC(=O)[C@H](CC(C)C)NC(=O)[C@H](CC(N)=O)NC(=O)[C@@H]4CCCN4C(=O)[C@H](CCCCN(C)C)NC(=O)[C@H](CSSC[C@H](NC(=O)[C@@H](N)CC(=O)O)C(=O)N[C@@H](CC(C)C)C(=O)NCC(=O)N[C@@H](Cc4ccccc4)C(=O)N[C@@H](CCSC)C(=O)N[C@@H](CCCNC(=N)N)C(=O)N[C@@H](CCCCN)C(=O)N2)NC(=O)[C@H](CSSC[C@@H](C(=O)N[C@@H](CCCCN)C(=O)N[C@@H](Cc2ccc(O)cc2)C(=O)N[C@H](C(=O)N[C@@H](Cc2ccccc2)C(N)=O)C(C)C)NC(=O)[C@H](Cc2c[nH]c4ccccc24)NC(=O)[C@H](CCCCN)NC(=O)[C@H](Cc2c[nH]cn2)NC(=O)[C@H]([C@@H](C)O)NC(=O)[C@H](CCCNC(=N)N)NC(=O)[C@H](CO)NC3=O)NC(=O)[C@H](CCCCN)NC(=O)[C@H](CC(=O)O)NC(=O)[C@H](CC(N)=O)NC(=O)[C@H](CC(=O)O)NC(=O)[C@@H]2CCCN2C1=O [[K(Me2)18]GpTx-1(1-34)] (H-DCLGFMRKCIPDNDKCC[Lys(Me2)]PNLVCSRTHKWCKYVF-NH2; disulfide 2-17, 9-23, 16-30)	8.30
